According to article PMC5306062, “Pharmacology and toxicology of the novel investigational agent Cantrixil (TRX-E-002-1)” (Cancer Chemotherapy and Pharmacology, 2016):
Read-outs that look alike come from different tables or passages of the source.

Columns and labels:
tumour spheroids = test: Degradation of tumour spheroids; type: cell-based, human
Text: Tumour recurrence post-chemotherapy is caused by the regrowth of the surviving innately drug-resistant cancer stem cells that remain in tumour niches during and post-chemotherapy. The expansion of this chemo-resistant cancer cell population, coupled with upregulation of pro-survival pathways due to drug pressure, is thought to be responsible for the development of chemo-resistant recurrent disease. Further, the inherent heterogeneity of ovarian tumours consists of epithelial cells with varying potential for stemness, and a population of cancer cells with varying mesenchymal status and invasiveness potential. Therefore, to improve survival, a practical approach is the use of novel therapies that can induce cell death in these various subtypes of ovarian cancer cells. TRX-E-002-1 was assessed against ovarian cancer stem cell line OCSC2, characterised by their expression of stem cell markers including CD44 and […] [22]. A major characteristic of these cells is that they are drug resistant, able to form self-renewing spheroids in non-adherent culture, and recreate disseminated drug-resistant ovarian tumours that have a high degree of heterogeneity similar to the clinical profile observed in patients when inoculated into the peritoneal cavity of an immune-compromised mouse.

hERG current = target: T1, hERG current (Homo sapiens, UniProt Q12809); test: Patch-clamp electrophysiological assay in hERG-transfected mammalian cells; type: cell-based; details: read-out: IC50 for inhibition of hERG current
T1 construct: expressed in transfected cells
T1 sequence (Q12809 whole entry): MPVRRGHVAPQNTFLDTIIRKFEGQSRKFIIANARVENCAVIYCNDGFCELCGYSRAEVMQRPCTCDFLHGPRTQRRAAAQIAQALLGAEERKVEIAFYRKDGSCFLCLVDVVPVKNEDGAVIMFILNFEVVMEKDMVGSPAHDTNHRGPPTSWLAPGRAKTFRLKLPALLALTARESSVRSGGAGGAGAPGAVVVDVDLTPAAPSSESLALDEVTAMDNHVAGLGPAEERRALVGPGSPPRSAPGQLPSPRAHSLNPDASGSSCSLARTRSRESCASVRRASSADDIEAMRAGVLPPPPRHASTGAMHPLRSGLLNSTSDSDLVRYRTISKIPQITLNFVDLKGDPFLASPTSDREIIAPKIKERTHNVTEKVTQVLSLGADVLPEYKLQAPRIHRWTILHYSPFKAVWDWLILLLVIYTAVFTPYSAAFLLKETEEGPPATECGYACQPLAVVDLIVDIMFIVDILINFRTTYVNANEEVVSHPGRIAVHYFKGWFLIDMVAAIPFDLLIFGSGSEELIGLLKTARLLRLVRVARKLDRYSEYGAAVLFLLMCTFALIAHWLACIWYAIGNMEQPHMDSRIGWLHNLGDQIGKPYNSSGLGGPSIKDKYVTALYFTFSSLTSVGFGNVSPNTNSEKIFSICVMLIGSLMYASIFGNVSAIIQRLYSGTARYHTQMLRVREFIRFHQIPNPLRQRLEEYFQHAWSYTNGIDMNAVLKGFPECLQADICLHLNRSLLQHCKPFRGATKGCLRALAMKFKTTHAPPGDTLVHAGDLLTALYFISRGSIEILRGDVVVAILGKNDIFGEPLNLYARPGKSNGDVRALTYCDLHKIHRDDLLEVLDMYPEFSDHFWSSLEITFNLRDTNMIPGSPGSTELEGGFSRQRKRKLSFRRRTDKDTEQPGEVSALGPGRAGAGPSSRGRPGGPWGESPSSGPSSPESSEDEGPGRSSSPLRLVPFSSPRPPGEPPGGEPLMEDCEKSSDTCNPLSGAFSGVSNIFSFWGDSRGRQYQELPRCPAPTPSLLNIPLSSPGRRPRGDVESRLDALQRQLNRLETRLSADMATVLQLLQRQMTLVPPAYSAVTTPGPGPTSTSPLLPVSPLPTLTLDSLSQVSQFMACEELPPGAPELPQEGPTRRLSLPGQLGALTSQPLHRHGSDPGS

CYP1A2 = target: T2, CYP1A2 (Homo sapiens, UniProt P05177); test: Metabolism-dependent CYP inhibition in human hepatic microsomes; type: in vitro ADME
T2 construct: investigated in human hepatic microsomes in vitro; from tissue; host or cells: human hepatic microsomes
T2 sequence (P05177 whole entry): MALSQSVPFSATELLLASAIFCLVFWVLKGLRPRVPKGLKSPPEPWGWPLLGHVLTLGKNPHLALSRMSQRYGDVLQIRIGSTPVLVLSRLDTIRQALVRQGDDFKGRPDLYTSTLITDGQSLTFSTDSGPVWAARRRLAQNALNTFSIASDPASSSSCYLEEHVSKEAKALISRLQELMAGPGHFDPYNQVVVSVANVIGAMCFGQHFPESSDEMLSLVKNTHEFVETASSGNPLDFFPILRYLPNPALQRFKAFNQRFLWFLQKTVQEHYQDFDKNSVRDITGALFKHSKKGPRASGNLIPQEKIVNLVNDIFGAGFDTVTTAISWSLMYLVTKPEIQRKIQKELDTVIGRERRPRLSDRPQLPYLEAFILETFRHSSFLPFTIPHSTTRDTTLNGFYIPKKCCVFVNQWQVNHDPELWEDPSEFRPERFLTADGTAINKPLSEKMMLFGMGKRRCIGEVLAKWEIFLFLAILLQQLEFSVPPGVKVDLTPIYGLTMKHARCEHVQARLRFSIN
Text: (§1) The potential for pharmacokinetic drug interactions resulting from inhibition of drug-metabolizing cytochrome P450 enzymes was investigated in human hepatic microsomes in vitro. TRX-E-002-1 inhibited multiple cytochrome P450 drug-metabolizing enzymes, including CYP2C9, CYP2C8, CYP2C19, CYP2B6, CYP3A4, CYP2D6, CYP2A6 and CYP1A2. […] In particular, the potential interaction between Cantrixil and paclitaxel, a CYP2C9 substrate frequently used in the treatment of ovarian cancer, needs to be considered.

CYP2C8 = target: T3, CYP2C8 (Homo sapiens, UniProt P10632); test: as above; type: in vitro ADME
T3 construct: investigated in human hepatic microsomes in vitro; from tissue; host or cells: human hepatic microsomes
T3 sequence (P10632 whole entry): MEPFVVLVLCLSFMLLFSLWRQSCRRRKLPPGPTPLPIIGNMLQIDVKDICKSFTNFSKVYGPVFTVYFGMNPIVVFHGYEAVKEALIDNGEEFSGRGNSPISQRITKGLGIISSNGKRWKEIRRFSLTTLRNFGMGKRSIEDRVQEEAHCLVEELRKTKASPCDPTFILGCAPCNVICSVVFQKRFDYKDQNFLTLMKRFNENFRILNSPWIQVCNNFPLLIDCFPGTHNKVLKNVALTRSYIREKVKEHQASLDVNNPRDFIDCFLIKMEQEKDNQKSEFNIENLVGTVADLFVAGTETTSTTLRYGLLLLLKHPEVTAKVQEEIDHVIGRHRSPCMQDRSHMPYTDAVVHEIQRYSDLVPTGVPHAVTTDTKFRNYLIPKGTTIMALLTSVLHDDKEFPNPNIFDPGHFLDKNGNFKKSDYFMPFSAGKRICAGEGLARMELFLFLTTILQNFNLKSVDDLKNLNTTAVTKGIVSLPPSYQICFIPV
Text: as §1

CYP3A4 = target: T4, CYP3A4 (Homo sapiens, UniProt P08684); test: as above; type: in vitro ADME
T4 construct: investigated in human hepatic microsomes in vitro; from tissue; host or cells: human hepatic microsomes
T4 sequence (P08684 whole entry): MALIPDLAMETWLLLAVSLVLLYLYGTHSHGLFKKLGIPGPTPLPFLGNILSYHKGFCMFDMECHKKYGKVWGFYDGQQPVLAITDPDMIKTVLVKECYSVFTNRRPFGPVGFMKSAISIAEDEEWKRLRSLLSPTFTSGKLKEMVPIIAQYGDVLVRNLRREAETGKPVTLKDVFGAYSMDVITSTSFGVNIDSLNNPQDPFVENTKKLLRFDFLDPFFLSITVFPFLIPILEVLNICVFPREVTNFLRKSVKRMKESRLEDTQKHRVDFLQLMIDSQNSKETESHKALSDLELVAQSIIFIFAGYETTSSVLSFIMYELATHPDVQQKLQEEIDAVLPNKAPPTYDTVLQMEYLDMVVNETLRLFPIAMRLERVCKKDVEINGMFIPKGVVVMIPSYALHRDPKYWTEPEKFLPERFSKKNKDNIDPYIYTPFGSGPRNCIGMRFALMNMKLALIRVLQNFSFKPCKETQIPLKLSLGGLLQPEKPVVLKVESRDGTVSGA
Text: as §1

[1] = Second dog pharmacokinetic study, 10 mg/kg intraperitoneal, four dogs; type: in vivo, beagle dogs; details: 10 mg/kg i.p.
Description: In beagle dogs, plasma concentrations of unconjugated TRX-E-002-1 at early time points (1–4 h’ post-dose) were 76–93% of the total levels (parent + glucuronide). At 8 h, the plasma concentrations of the glucuronide metabolites were similar to those of parent drug. By 24 h’ post-dose, the concentrations of TRX-E-002-1-glucuronide in plasma and gastrointestinal tissues (except colon) were 2–12 times higher than those of the parent drug. The increased levels of TRX-E-0021-glucuronide relative to those of parent drug at 24 h post-dose may reflect slower elimination of the glucuronide metabolites.

[2] = Excretion study in rats, single intraperitoneal injection; type: in vivo, female Sprague–Dawley rats; details: 100 mg/kg i.p.
Description: Excretion of TRX-E-002-1 was investigated in female Sprague–Dawley rats that received a single intraperitoneal injection of TRX-E-002-1 100 mg/kg in 20% SBECD. High levels of parent drug were measured in urine up to 24 h after dosing and in faeces up to 48 h after dosing. The glucuronide conjugate, measured as the increase in TRX-E-002-1 following treatment of the samples with beta-glucuronidase, was found at levels similar to those of parent drug in faeces (rectal contents) up to 2 h after dosing, but was barely detectable in urine. Total amounts of parent drug and glucuronide excreted in faeces and urine were not calculated, so that the relative contributions of renal and biliary excretion pathways cannot be evaluated.

[3] = Rat 14-day pilot repeat-dose intraperitoneal toxicity study; type: in vivo; details: for deaths: 50 mg/kg/day; for AUC(0-t) / Cmax: plasma, Day 14, 5 mg/kg/day; for Cmax: read-out: plasma C max
Description: Clinical signs at all dose levels were reduced and/or liquid faeces, and staining of the fur of the forelimbs or around the eyes, nose and snout. […] Macroscopic pathology findings were limited to the 50 mg/kg/day group and included small testes, small thymus and small spleen.

[4] = system: Escherichia coli strain WP2uvrA; test: Bacterial reverse mutation test, plate assay; type: cell-based; details: absence or presence of S9 mix
Description: (§2) The assays were performed in compliance with GLP regulations.
(§3) The bacterial reverse mutation test employed Salmonella typhimurium strains TA1535, TA1537, TA98 and TA100, and Escherichia coli strain WP2uvrA in a conventional plate assay, with and without exogenous metabolic activation by a rat liver post-mitochondrial fraction (S9 mix).

[5] = system: Salmonella typhimurium strains TA1535, TA1537, TA98 and TA100; test: Bacterial reverse mutation test, plate assay; type: cell-based; details: absence or presence of S9 mix
Description: as §2, §3

[6] = Dog 14-day pilot toxicity study with toxicokinetics, intraperitoneal; details: both, beagle, dog, plasma
Description: For the dog 14-day pilot study, male and female beagle dogs were dosed once daily with intraperitoneal injections of vehicle (1:2 dilutions of 20% SBECD in 0.9% saline) or Cantrixil (10, 30 or 100 mg/kg) for 14 days. The doses were administered via an implanted catheter.

[7] = female, Sprague-Dawley, rat, ip, females
[8] = male, Sprague-Dawley, rat, ip, males

Question: What does the source list for `COc1cc([C@@H]2COc3c(ccc(O)c3C)[C@@H]2c2ccc(O)cc2)cc(OC)c1O` [TRX-E-002-1, (+) cis-4-(para-hydroxyphenyl)-7,4′-dihydroxy-3′,5′-dimethoxy-8-methylisoflavan]?
Answer: effect on tumour spheroids (tumour spheroids): promoted the degradation; IC50 (hERG current): 17 µM; metabolism-dependent inhibition (CYP1A2): observed; metabolism-dependent inhibition (CYP2C8): observed; metabolism-dependent inhibition (CYP3A4): observed; TRX-E-002-1 levels by 72 h [1]: close to or below the limit of quantification; Kp at 24 h ([1]; beagle, dog, gastrointestinal tissues, ip, 24 h after dosing, read-out: concentrations in gastrointestinal tissues relative to plasma): ≥ 30; parent drug in urine ([2]; up to 24 h after dosing): High levels; parent drug in faeces ([2]; up to 48 h after dosing): High levels; deaths ([3]; females): 8/11; deaths ([3]; males): 9/11; NOAEL at 14 days ([3]; both sexes, Sprague-Dawley, rat, in vivo, ip): 5 mg/kg/day; AUC(0-t) [3, 7]: 665 ng·h/mL; Cmax [3, 7]: 257 ng/mL; doses with reduced body weight gain ([3]; females): ≥ 15 mg/kg/day; AUC(0-t) [3, 8]: 1870 ng·h/mL; Cmax [3, 8]: 909 ng/mL; doses with reduced body weight gain ([3]; males): ≥ 5 mg/kg/day; number of revertant colonies [4]: no significant increases; number of revertant colonies [5]: no significant increases; half-life ([6]; intraperitoneal): 2 to 2.7 h; Tmax ([6]; ip, 100 mg/kg): 0.5 to 2 h
